Consider 8 molecules from patent US10900063B2, “Measurement of Lp-PLA2 activity” (ASAHI KASEI PHARMA CORPORATION, priority 2016, dated 2021).

The conditions of data set [1]: neutral pH; cited from earlier work.
For data set [2], the target named is T1, Lp-PLA2 (Homo sapiens, UniProt Q13093).
T1 construct: Individual serum No. 16, individual serum No. 78; from tissue; host or cells: serum and plasma (individual sera, pooled sera, heparin and citrated pooled plasma)
T1 sequence (Q13093 22-441): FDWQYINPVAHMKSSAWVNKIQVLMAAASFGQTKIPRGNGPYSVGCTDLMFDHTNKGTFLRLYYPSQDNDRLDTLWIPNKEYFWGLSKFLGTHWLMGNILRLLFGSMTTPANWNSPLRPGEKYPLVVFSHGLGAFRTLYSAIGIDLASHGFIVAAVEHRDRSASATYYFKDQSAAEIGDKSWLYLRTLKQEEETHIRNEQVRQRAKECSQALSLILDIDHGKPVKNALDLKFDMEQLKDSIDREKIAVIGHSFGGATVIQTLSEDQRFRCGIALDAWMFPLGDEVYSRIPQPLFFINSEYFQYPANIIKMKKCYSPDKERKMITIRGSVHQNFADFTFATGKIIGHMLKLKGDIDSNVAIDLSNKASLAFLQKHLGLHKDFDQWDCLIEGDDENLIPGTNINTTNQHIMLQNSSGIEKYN
In words: Effects of coexisting substances, PLAC Test. The format is biochemical. The following applies: for Lp-PLA2 activity value / ΔmAbs/min: coexisting substance added 1:9 to pooled serum J042; for measurement value as percentage of sample with added water (100%): pooled serum J042 plus coexisting substance vs J042 + water. From the text: (§1) The reagent compositions were the same as in Example 17.
(§2) The absorbance change values per minute (ΔmAbs/min) and activity values (nmol/min/mL and U/L) with each kind of reagent are shown in Tables 43 to 45. Given 100% as the measurement value of the sample with the added water, the measurement values for the other samples are shown as percentages.

Data set [3] deals with T1, Lp-PLA2. In words: Effects of coexisting substances, reagents of invention. The format is biochemical. The following applies: for measurement value as percentage of sample with added water: J042 + water = 100%, concentrations as printed in the sample names; for Lp-PLA2 activity value / absorbance change per minute: pooled serum J042 mixed 9:1 with: Bil-C 20 mg/dL, Bil-F 20 mg/dL, hemolytic Hb 500 mg/dL, chyle 1400 FTU, Intralipos 1%, ascorbic acid 50 mg/dL.
From the text: as §1, §2

Data set [4] addresses T1, Lp-PLA2. As to the kind of experiment: Effects of coexisting substances, Lp-PLA2 FS. The following applies: for Lp-PLA2 activity value / ΔmAbs/min: coexisting substance added 1:9 to pooled serum J042; for measurement value as percentage of sample with added water (100%): pooled serum J042 plus coexisting substance vs J042 + water. The format is biochemical.
From the text: as §1, §2

Data set [5] can be described thus: Thermal stability test of lyso-PAF-PLD (residual activity). The format is physicochemical. The following applies: incubated 60 minutes in 20 mM Tris-HCl (pH 7.5). As to the method: The purified lyso-PAF-PLD was incubated for 60 minutes at different temperatures in a 20 mM Tris-HCl (pH 7.5) solution, and residual activity was investigated with the following reaction solution. C18(Plasm) LPC (Product No. 852465P, Avanti Polar Lipids, Inc.) was used as the substrate.
50 μL of the reaction solution was pre-incubated for 5 minutes at 37° C., 5 μL of the enzyme solution was added, and an enzyme reaction was performed for 1 minute at […]. 200 μL of the color developing solution was then added and reacted for 10 minutes at 37° C., after which absorbance was measured at 550 nm. The activity value was calculated according to the following formula.

A short description of data set [6]: Specificity of recombinant lyso-PAF-PLD: PLD activity against PAF. The format is biochemical. The following applies: 0 to 0.5 mM PAF (C16); […] enzyme in R2. As to the method: (§3) To investigate the specificity of the recombinant lyso-PAF-PLD purified in Reference Example 3, activity against PAF(C16) and lyso-PAF(C16) was studied. The reagent compositions are as follows.
(§4) 5 μL samples containing PAF(C16) or lyso-PAF(C16) at concentrations of 0, 0.1, 0.2, 0.3, 0.4 or 0.5 mM were each incubated for 5 minutes at 37° C. with 15 μL of the R1 reagent (measuring points 1 to 15), after which 50 μL of the R2 reagent was added and reacted for 5 minutes (measuring points 16 to 31).

The nature of data set [7]: Specificity of recombinant lyso-PAF-PLD: PLD activity against lyso-PAF. The following applies: 0 to 0.5 mM lyso-PAF (C16); […] enzyme in R2. The format is biochemical. As to the method: as §3, §4
Data set [8] is described as follows: PLD activity (kcat/Km) of lyso-PAF-PLD and site-specific mutants against lyso-PAF. The format is biochemical. The following applies: substrate lyso-PAF 0 to 5 mM, pH 7.5, 37° C. Here is the method:
As a result, the pre-mutation PLD activity was 1385 (s^−1 mM^−1), but the mutant having G substituted for the M in the 45th position of SEQ ID NO: 9 (called M45G) and the similarly-named mutants M45A, M45L and M45D had PLD activities of 3059, 11411, 3284 and 4557 (s^−1mM^−1), respectively.
As a result, the PLD activity was 1385 (s^−1mM^−1) before the mutation, but the mutant having G substituted for F in the 257th position of […] (called F257G) and the similarly-named mutants F257E, F257R, F257K and F257W had PLD activities 1200, 1000, 1080, 1020 and 1320, respectively.
The PLD activity of the lyso-PAF-PLD mutants obtained by site-specific mutations was measured as follows. 1.211 g of Tris, 14.7 mg of calcium chloride dihydrate (Wako Pure Chemical Industries, Ltd.), 20 mL of lyso-PAF solution and 2 mL of 1% TODB solution were dissolved in 60 mL of purified water, the pH was adjusted to 7.5 (25° C.) with 1 N HCl, 4 mL of 100 U/mL choline oxidase, 4 mL of 100 U/mL peroxidase solution and 2 mL of 1% 4-AA solution were added and dissolved, and the total was brought to 100 mL with purified water to obtain a PLD activity measurement reagent for lyso-PAF (reaction reagent mixture). The lyso-PAF solution was adjusted so that the lyso-PAF concentration in the reaction reagent mixture was 0 to 5 mM. 3 mL of the reaction reagent mixture was pre-heated for 5 minutes at 37° C., and mixed with 50 μL of a solution of the lyso-PAF-PLD mutant with the introduced site-specific mutation diluted appropriately with 10 mM Tris-HCl (pH 7.5) to initiate a reaction, and the change in absorbance at 546 nm was measured for 1 minute between 8 and 9 minutes after initiation of the reaction. The activity value (μmole/min) was calculated given 36 (cm^2/μmole) as the millimolar extinction coefficient of the quinoneimine dye at 546 nm. The protein content (mg/mL) was calculated by the Bradford method using bovine serum albumin as the standard. Km and kcat were calculated by the Michaelis-Menten formula in accordance with the methods described in the aforementioned Theory and Practice on Enzymes and other Proteins [Tanpakushitsu/Kouso no kiso jikkenhou] and in Voet's Basic Biochemistry (Fourth Ed.) and the like. For purposes of calculation, the molecular weight of the enzyme was given as 33583.

For orientation: Km means the substrate concentration at which the rate is half of its maximum. In general, kcat refers to the maximal rate divided by the concentration of active sites.

As for `CCCCCCCCCCCCCC(=O)OCC(COP(=O)([O-])OCC[N+](C)(C)C)OC(=O)CCC(=O)Oc1ccc([N+](=O)[O-])cc1` (stereo not drawn) [1-myristoyl-2-(4-nitrophenylsuccinyl)phosphatidylcholine], in data set [1], the water solubility result was “poor water solubility at neutral pH values”.

Regarding `C=CC1=C(C)/C(=C/c2[nH]c(Cc3[nH]c(/C=C4\NC(=O)C(C)=C4C=C)c(C)c3CCC(=O)O)c(CCC(=O)O)c2C)NC1=O` [Bil-F], on Lp-PLA2 [2], the Lp-PLA2 activity value is 145.5 nmol/min/mL, the ΔmAbs/min was 188.4 ΔmAbs/min and the “measurement value as percentage of sample with added water (100%)” value (“measurement value as percentage … (100%)” for short) came out at 105%. In addition, at Lp-PLA2 [3], the “measurement value as percentage of sample with added water” value was determined as 101%, the Lp-PLA2 activity value is 31.3 nmol/min/mL and the “absorbance change per minute” value was 22.1 ΔmAbs/min. For the same molecule, at Lp-PLA2 [4], the Lp-PLA2 activity value worked out at 351.0 U/L, the ΔmAbs/min is given as 29.4 ΔmAbs/min and the “measurement value as percentage … (100%)” value amounted to 102%.

`O=C1O[C@H]([C@@H](O)CO)C(O)=C1O` [ascorbic acid, L(+)-Ascorbic acid]: at Lp-PLA2 [2], the Lp-PLA2 activity value is reported as 138.1 nmol/min/mL, the ΔmAbs/min is listed as 181.0 ΔmAbs/min and the “measurement value as percentage … (100%)” value was determined as 99%. Besides, on Lp-PLA2 [3], the “measurement value as percentage of sample with added water” value was 96%, the Lp-PLA2 activity value stood at 29.6 nmol/min/mL and the “absorbance change per minute” value is on record as 20.9 ΔmAbs/min. For the same molecule, at Lp-PLA2 [4], the Lp-PLA2 activity value was 343.5 U/L, the ΔmAbs/min is 28.8 ΔmAbs/min and the “measurement value as percentage … (100%)” value came out at 100%.

B1: lyso-PAF-PLD: recombinant enzyme from Thermocrispum sp. NITE BP-01628, SEQ ID NO: 9, PLD activity against lyso-PAF but not PAF (protein)
chain: MTTRTTDNPWLDARVLNMAHAGGENEAPANTLYAFKRAVKLGANMLELDVQSTKDDQLVVIHNATVDQTTDGTGKVRDLTFEQVHELDAAYNFIPGRHAVPGEPPESYPLRGVRTGEKKPPPGYQPSDFAIPKLADVLEAFPRTPINIEIKGTSDADIPSFLHNAKLLARLLKKTGRTDFIVTSFNDLAVAKFHLLAPDIPIAPGMAGLAAYFLLGVKPMHGTVALQIPVRYQGLEIATPEFIRRAHADGYAVHVWFSGTAPDDEATYNRIIDSCADGLMPAYPALLERILDERGIERPGRPGVDPCG
For the molecule B1, the “thermal stability (residual activity)” value in data set [5] was “not inactivated by storage at 20 to 60 °C”. For the same molecule, the “PLD activity against PAF” value in data set [6] is reported as “not against PAF”. The “PLD activity against lyso-PAF” value in data set [7] is recorded as “exhibits PLD activity only against lyso-PAF”.

B2: M45A: lyso-PAF-PLD mutant, A substituted for M in the 45th position of SEQ ID NO: 9 (protein)
chain: MTTRTTDNPWLDARVLNMAHAGGENEAPANTLYAFKRAVKLGANALELDVQSTKDDQLVVIHNATVDQTTDGTGKVRDLTFEQVHELDAAYNFIPGRHAVPGEPPESYPLRGVRTGEKKPPPGYQPSDFAIPKLADVLEAFPRTPINIEIKGTSDADIPSFLHNAKLLARLLKKTGRTDFIVTSFNDLAVAKFHLLAPDIPIAPGMAGLAAYFLLGVKPMHGTVALQIPVRYQGLEIATPEFIRRAHADGYAVHVWFSGTAPDDEATYNRIIDSCADGLMPAYPALLERILDERGIERPGRPGVDPCG
Turning to B2, in data set [8], the Km is 12 µM and the kcat was 136 s⁻¹.

B3: M45G: lyso-PAF-PLD mutant, G substituted for M in the 45th position of SEQ ID NO: 9 (protein)
chain: MTTRTTDNPWLDARVLNMAHAGGENEAPANTLYAFKRAVKLGANGLELDVQSTKDDQLVVIHNATVDQTTDGTGKVRDLTFEQVHELDAAYNFIPGRHAVPGEPPESYPLRGVRTGEKKPPPGYQPSDFAIPKLADVLEAFPRTPINIEIKGTSDADIPSFLHNAKLLARLLKKTGRTDFIVTSFNDLAVAKFHLLAPDIPIAPGMAGLAAYFLLGVKPMHGTVALQIPVRYQGLEIATPEFIRRAHADGYAVHVWFSGTAPDDEATYNRIIDSCADGLMPAYPALLERILDERGIERPGRPGVDPCG
In the case of B3, in data set [8], the Km was 27 µM and the kcat worked out at 82 s⁻¹.

B4: M45D: lyso-PAF-PLD mutant, D substituted for M in the 45th position of SEQ ID NO: 9 (protein)
chain: MTTRTTDNPWLDARVLNMAHAGGENEAPANTLYAFKRAVKLGANDLELDVQSTKDDQLVVIHNATVDQTTDGTGKVRDLTFEQVHELDAAYNFIPGRHAVPGEPPESYPLRGVRTGEKKPPPGYQPSDFAIPKLADVLEAFPRTPINIEIKGTSDADIPSFLHNAKLLARLLKKTGRTDFIVTSFNDLAVAKFHLLAPDIPIAPGMAGLAAYFLLGVKPMHGTVALQIPVRYQGLEIATPEFIRRAHADGYAVHVWFSGTAPDDEATYNRIIDSCADGLMPAYPALLERILDERGIERPGRPGVDPCG
For the molecule B4, in data set [8], the Km stood at 34 µM and the kcat came to 157 s⁻¹.

B5: M45L: lyso-PAF-PLD mutant, L substituted for M in the 45th position of SEQ ID NO: 9 (protein)
chain: MTTRTTDNPWLDARVLNMAHAGGENEAPANTLYAFKRAVKLGANLLELDVQSTKDDQLVVIHNATVDQTTDGTGKVRDLTFEQVHELDAAYNFIPGRHAVPGEPPESYPLRGVRTGEKKPPPGYQPSDFAIPKLADVLEAFPRTPINIEIKGTSDADIPSFLHNAKLLARLLKKTGRTDFIVTSFNDLAVAKFHLLAPDIPIAPGMAGLAAYFLLGVKPMHGTVALQIPVRYQGLEIATPEFIRRAHADGYAVHVWFSGTAPDDEATYNRIIDSCADGLMPAYPALLERILDERGIERPGRPGVDPCG
As for B5, in data set [8], the Km came to 23 µM and the kcat stood at 147 s⁻¹.
